The EC50 is the concentration needed to bring the measured effect to its halfway point. A high value points to a less potent agent.

Read-outs that look alike come from different tables or passages of the source.

Assay [1] has as its target Btα1/Btα2/Btα8/Btβ1 nAChR (Bombus terrestris, UniProt A0A9B0BGM1+A0A9B0F4H3+A0A9B2JDZ7+A0A9B2JMX7). The assay can be described thus: two-electrode voltage clamp of Xenopus oocytes, agonist concentration-response. In kind it is cell-based. On the technique in general: In two-electrode clamp one electrode senses voltage and the other passes current.
The target in assay [2] is T1, Amα1/Amα8/Amβ1 nAChR (Apis mellifera, UniProt A0A7M7MMZ9+A0A8U0WQ70+A0A8U0WQC0).
T1 sequence (A0A7M7MMZ9 44-627): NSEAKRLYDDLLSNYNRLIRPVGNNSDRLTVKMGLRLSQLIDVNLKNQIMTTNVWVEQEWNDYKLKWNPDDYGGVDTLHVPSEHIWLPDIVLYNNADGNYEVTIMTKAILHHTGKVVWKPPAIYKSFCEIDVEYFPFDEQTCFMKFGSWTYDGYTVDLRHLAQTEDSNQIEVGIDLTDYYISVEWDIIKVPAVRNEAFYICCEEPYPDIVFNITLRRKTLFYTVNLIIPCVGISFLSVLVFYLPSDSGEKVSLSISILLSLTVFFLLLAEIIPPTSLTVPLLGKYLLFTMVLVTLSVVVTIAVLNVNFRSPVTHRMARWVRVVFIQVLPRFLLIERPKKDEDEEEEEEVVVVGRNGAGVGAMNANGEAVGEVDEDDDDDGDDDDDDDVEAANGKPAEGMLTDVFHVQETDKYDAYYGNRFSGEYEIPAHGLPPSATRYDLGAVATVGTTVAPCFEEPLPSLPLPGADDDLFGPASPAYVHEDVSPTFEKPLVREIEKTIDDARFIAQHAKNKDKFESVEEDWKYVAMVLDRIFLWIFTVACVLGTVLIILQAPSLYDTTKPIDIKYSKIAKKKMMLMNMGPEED
T1 sequence (A0A8U0WQ70 25-537): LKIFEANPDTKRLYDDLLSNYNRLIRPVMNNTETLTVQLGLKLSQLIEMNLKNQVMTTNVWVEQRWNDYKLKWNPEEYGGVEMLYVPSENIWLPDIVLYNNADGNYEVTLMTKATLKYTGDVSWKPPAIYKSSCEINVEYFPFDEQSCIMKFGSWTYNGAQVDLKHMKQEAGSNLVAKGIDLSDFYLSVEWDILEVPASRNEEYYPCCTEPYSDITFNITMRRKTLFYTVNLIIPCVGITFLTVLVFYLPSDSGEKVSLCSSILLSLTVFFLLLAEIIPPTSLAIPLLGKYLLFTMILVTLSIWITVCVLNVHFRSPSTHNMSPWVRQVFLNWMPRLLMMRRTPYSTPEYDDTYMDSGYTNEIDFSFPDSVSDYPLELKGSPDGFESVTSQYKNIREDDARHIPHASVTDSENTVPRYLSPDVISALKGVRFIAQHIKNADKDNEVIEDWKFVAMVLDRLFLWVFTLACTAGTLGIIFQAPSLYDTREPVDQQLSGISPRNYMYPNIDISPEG
T1 sequence (A0A8U0WQC0 25-520): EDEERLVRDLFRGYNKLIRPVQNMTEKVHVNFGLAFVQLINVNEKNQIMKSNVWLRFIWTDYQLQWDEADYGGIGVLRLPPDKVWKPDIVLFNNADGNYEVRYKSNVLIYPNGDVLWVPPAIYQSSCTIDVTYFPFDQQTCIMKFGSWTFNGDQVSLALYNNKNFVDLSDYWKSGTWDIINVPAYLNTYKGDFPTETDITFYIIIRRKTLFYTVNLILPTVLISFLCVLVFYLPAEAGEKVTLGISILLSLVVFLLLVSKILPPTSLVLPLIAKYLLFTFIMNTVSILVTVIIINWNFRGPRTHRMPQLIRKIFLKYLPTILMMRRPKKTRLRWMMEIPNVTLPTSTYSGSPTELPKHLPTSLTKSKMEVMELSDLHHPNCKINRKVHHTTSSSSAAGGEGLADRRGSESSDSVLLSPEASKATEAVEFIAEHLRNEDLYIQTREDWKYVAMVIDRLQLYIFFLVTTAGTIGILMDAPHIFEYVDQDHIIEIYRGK
Nature of the assay: cell-based. Set-up: species or system Xenopus laevis oocytes. Particulars: Oocyte.

The target of assay [3] is Dα1/Dα2/Dβ1/Dβ2 nAChR (Drosophila melanogaster, UniProt P04755+P09478+P17644+P25162). The assay can be described thus: cell-based. The note with it: Oocyte. More on the design: species or system Xenopus laevis oocytes.

`CN/C(=N\[N+](=O)[O-])NCc1cnc(Cl)s1` [clothianidin]: a half-maximal effect in assay [1] (EC50) was put at 0.0389 µM. Further, the Emax in assay [2] (read-out: Clothianidin / Imax) stood at 78.8 ± 2%; in assay [3] (read-out: Clothianidin / Imax / ND), 82.1 ± 1.7%.

As for `O=[N+]([O-])NC1=NCCN1Cc1ccc(Cl)nc1` [imidacloprid], the response in assay [1] was half-maximal at 0.0398 µM (EC50). The Emax stood at 7.5 ± 0.4% in assay [2] (read-out: Imidacloprid / Imax) and 59.2 ± 3% in assay [3] (read-out: Imidacloprid / Imax).

`N#C/N=C1\SCCN1Cc1ccc(Cl)nc1` [thiacloprid] had an EC50 in assay [1] of 0.0724 µM. The Emax was determined as 5.8 ± 0.6% in assay [2] (read-out: Thiacloprid / Imax) and 45.4 ± 1.9% in assay [3] (read-out: Thiacloprid / Imax).

For the origin of these results see publication PMC7368294 (Proceedings of the National Academy of Sciences of the …, 2020).
